In PMC3328449, “Inhibition of Diacylglycerol–Sensitive TRPC Channels by Synthetic and Natural Steroids” (PLoS ONE, 2012):

Tests used:
A7r5 cells = test: Whole-cell patch clamp, AVP-induced receptor-operated cation currents in A7r5 cells; assay type: cell-based; settings: 10 µM, 100 nM AVP, measured at −70 mV, reversible, n = 8
Experimental: A7r5 cells (ATCC, Rockville, USA) were maintained in DMEM (with glutaMAX I, 4.5 g/l glucose and […] sodium pyruvate), supplemented with 10% (v/v) fetal bovine serum (PAA, Pasching, Austria).
The whole-cell patch clamp technique was employed to measure ion currents from single cells. Heat-polished patch pipettes with resistances of 2–4 MΩ were pulled from borosilicate glass capillaries (Hilgenberg, Malsfeld, Germany) using a DMZ-Universal puller (Zeitz-Instruments, Munich, Germany) and filled with standard intracellular solution containing: 120 mM CsOH, 120 mM gluconic acid, 2 mM MgCl2, 3 mM CaCl2, 5 mM Cs4-BAPTA, 10 mM HEPES (pH 7.4 adjusted with gluconic acid). For agonist-independent stimulation of TRPC currents the intracellular solution was supplemented with 30 µM AlCl3 and 10 mM NaF and cells were infused with AlF4 ^− through the patch pipette. AlF4 ^− is a non-specific activator of heterotrimeric G proteins that consequently leads to increased phospholipase C activity and TRPC channel activation. […]
Cells grown on poly-L-lysine-coated coverslips were continuously superfused with extracellular solution and substances were applied using an ALA BPS-8 perfusion system (ALA Scientific Instruments, Westbury, USA). […] Cells were held at −70 mV, and current-voltage (I–V) relationships were routinely measured every 2 or 3 s by applying voltage ramps (180 ms) from −100 mV to +80 mV. […]

human α1A-receptors = target: T1, human α1A-receptors (Homo sapiens, UniProt P35348); test: Phenylephrine-induced Ca2+ release in CHO cells expressing human α1A-receptors (fluo-4); assay type: cell-based; settings: 10 µM phenylephrine, 1 mM EGTA buffer
T1 construct: expressed in transfected cells
T1 sequence (P35348 1-466): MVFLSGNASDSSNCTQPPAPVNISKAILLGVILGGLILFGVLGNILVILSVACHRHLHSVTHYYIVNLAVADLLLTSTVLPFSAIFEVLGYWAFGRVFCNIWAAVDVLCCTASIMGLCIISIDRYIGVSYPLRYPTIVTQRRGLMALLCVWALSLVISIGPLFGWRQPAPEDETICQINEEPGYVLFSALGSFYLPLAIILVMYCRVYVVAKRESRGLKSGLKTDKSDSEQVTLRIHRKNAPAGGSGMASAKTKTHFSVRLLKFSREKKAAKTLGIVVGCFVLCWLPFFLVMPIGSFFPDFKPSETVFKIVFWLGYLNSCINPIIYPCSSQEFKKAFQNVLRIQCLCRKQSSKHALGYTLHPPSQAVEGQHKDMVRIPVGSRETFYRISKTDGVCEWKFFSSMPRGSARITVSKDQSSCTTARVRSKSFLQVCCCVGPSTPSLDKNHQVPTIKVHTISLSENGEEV
Experimental: For measurement of norgestimate effects on adrenoceptor signaling a CHO cell line stably expressing human α1A-receptors (GenBank accession number NM_000680.2) under control of a CMV promoter was used. CHO cells were kept in HAM's F-12 medium (with glutaMAX I) supplemented with 10% (v/v) fetal bovine serum (Biochrom), 1 mM glutamine, and 0.6 mg/ml geneticin.
[Ca^2+]i measurements in CHO cells stably expressing human α1A –receptors were performed essentially as described for HEK-FITR cells. The α1- agonist phenylephrine was used for receptor stimulation.
Supplementary file pone.0035393.s001.tif: Figure S1 Stimulatory effect of norgestimate on α1A- receptor-mediated Ca^2+ signaling in CHO cells. (A) Phenylephrine (Phe) -induced changes of [Ca^2+]i were measured in a stable CHO cell line expressing human α1A-adrenoceptors. Cells loaded with fluo-4 were pre-incubated with or without 30 µM norgestimate (NG) and challenged with 10 µM phenylephrine or control buffer. Representative traces are shown. Fluorometric imaging plate reader [Ca^2+]i measurements were performed essentially as described for HEK-FITR cells (see Materials and Methods) with the exception that the extracellular buffer contained 1 mM EGTA instead of 2 mM Ca^2+. (B) The relative increase in Ca^2+ release induced in the presence of different concentrations of norgestimate is shown. […]

[1] = Solubility in perfusate (remark); assay type: physicochemical; settings: aortic ring experiments; higher concentrations could not be tested

Effect on phenylephrine-induced Ca2+ release (human α1A-receptors): significantly stimulated | Solubility [1]: limited solubility
Structure (SMILES): C#C[C@]1(OC(C)=O)CC[C@H]2[C@@H]3CCC4=CC(=NO)CC[C@@H]4[C@H]3CC[C@@]21CC (mixture of isomers) [norgestimate]
Reduction of AVP-induced receptor-operated cation currents (A7r5 cells): 86.5±6.0%
